The experiment relates to Plasmodium berghei. Description: Luciferase/luciferin-expressing antifolate-resistant parasites were used to infect a culture of HepG2 cells that were pre-incubated with compounds. Infected hepatocytes emit light due to the luciferase reaction. Assay results are presented as the percent inhibition of light emission compared to control. […]. To be noted: sporozoite; for IC90: read-out: LUCIFERASE INFECTION ASSAY - IC90. The class given is functional.

Where [1] appears, read: read-out: LUCIFERASE INFECTION ASSAY - IC50.

Molecules are shown by their SMILES.

`CCOCc1c(C(=O)Nc2ccccc2N2CCN(C)CC2)oc2ccccc12`: the IC90 was found to be 7.05 µM. Further, where the note is “PBLUC_HILL_SLOPE 0.969, 2.85, PBLUC_R_SQUARED 0.516, 0.696, read-out: LUCIFERASE INFECTION ASSAY - IC50”, the IC50 is 2.83 µM.
Regarding `O=C(/C=C/c1ccco1)Nc1ccc(Cl)c(Cl)c1`, the IC90 stood at 11.3 µM. Also, the IC50 (HEPG2TOX_HILL_SLOPE 2.91, HEPG2TOX_R_SQUARED 0.987, PBLUC_HILL_SLOPE 6.61, PBLUC_R_SQUARED 0.512, read-out: LUCIFERASE INFECTION ASSAY - IC50) stood at 8.1 µM.
With `Cn1cc(-c2cc3cnc(Nc4ccc(C(N)=O)cc4)cc3n2Cc2ccccc2)cn1`, the IC90 is above 10 µM. Further, the IC50 under setting [1] is above 10 µM.
In the case of `Cc1ccccc1N1CCN(C(=O)c2ccc(Cl)c(S(=O)(=O)NCc3ccccc3)c2)CC1`, the IC90 was above 10 µM. For the same molecule, the IC50 (HEPG2TOX_HILL_SLOPE 11.1, HEPG2TOX_R_SQUARED 0.861, PBLUC_HILL_SLOPE 8.51, PBLUC_R_SQUARED 0.104, read-out: LUCIFERASE INFECTION ASSAY - IC50) came out at 9.26 µM.
On to `CCCc1cc(NCc2ccccn2)n2ncc(-c3ccccc3)c2n1`, for which the IC90 was above 9.61 µM. Moreover, the IC50 (PBLUC_HILL_SLOPE 2.13, PBLUC_R_SQUARED 0.117, read-out: LUCIFERASE INFECTION ASSAY - IC50) was found to be 5.6 µM.
Consider `O=C(c1ccc(=O)[nH]c1)N1CCN(Cc2nc(=O)c3ccccc3[nH]2)CC1`, for which the IC90 is above 10 µM. Moreover, the IC50 under setting [1] is above 10 µM.
Consider `COc1ccc(-c2cnc3cnc(-c4ccco4)cn23)cc1`, for which the IC90 was 7.67 µM. Further, where the note is “HEPG2TOX_HILL_SLOPE 2.99, HEPG2TOX_R_SQUARED 0.923, PBLUC_HILL_SLOPE 3.57, PBLUC_R_SQUARED 0.717, read-out: LUCIFERASE INFECTION ASSAY - IC50”, the half-maximal inhibitory concentration (IC50) stood at 4.15 µM.
`CO/N=C1\CC(C)(C)Cc2c(-c3ccn(S(=O)(=O)c4ccccc4Cl)n3)sc(SC)c21`: the IC90 was above 6.65 µM. Besides, under setting [1], the IC50 is above 6.65 µM.
`CN(C)S(=O)(=O)c1cccc(NC(=O)c2ccc3c(c2Cl)C(=O)c2ccccc2C3=O)c1`: the IC90 was above 10 µM. Also, under setting [1], the IC50 was 8.82 µM.
In the case of `CC(C)N(Cc1ccccc1)C(=S)NC(=O)C1(C)CC1(Cl)Cl` (stereo not given), the IC90 was above 10 µM. The IC50 under setting [1] is above 10 µM.
Regarding `N#CC1(c2ccccc2)C/C(=C\c2cccnc2)C(=O)/C(=C/c2cccnc2)C1` (stereo not given), the IC90 was 4.83 µM. In addition, the IC50 (HEPG2TOX_HILL_SLOPE 15.6, HEPG2TOX_R_SQUARED 0.458, PBLUC_HILL_SLOPE 155, PBLUC_R_SQUARED 0.194, read-out: LUCIFERASE INFECTION ASSAY - IC50) is 4.76 µM.
For `Cc1c2cnn(C)c(=O)c2c(C)n1Cc1cccs1`, the IC90 is above 12.1 µM. Moreover, the IC50 (PBLUC_HILL_SLOPE 0.733, PBLUC_R_SQUARED 0.45, read-out: LUCIFERASE INFECTION ASSAY - IC50) came to 4.19 µM.
Take `O=C(NCCCc1nc2ccccc2[nH]1)c1[nH]nc2ccccc12`: the IC90 is 1.48 µM. Moreover, the IC50 (HEPG2TOX_HILL_SLOPE 1.95, 1.49, HEPG2TOX_R_SQUARED 0.808, 0.974, PBLUC_HILL_SLOPE 11.3, 2.85, PBLUC_R_SQUARED 0.579, 0.589, read-out: LUCIFERASE INFECTION ASSAY - IC50) turned out to be 0.947 µM.
Take `O=C(Nc1ccc(Cl)cc1C(F)(F)F)C(OC(=O)C(c1ccccc1)c1ccccc1)c1ccccc1` (stereo not given): the IC90 was above 10 µM. The IC50 under setting [1] is above 10 µM.
On to `CC(=O)Nc1ccc(NC(=O)/C=C/c2cc(C)n(-c3ccccc3)c2C)c(C(F)(F)F)c1`, for which the IC90 amounted to 9.3 µM. Further, under “PBLUC_HILL_SLOPE 1.31, PBLUC_R_SQUARED 0.816, read-out: LUCIFERASE INFECTION ASSAY - IC50”, the IC50 was determined as 1.74 µM.
For `CC(=O)n1nc(NCc2cccc(Cl)c2)nc1NCc1cccc(Cl)c1`, the IC90 is above 8.46 µM. The IC50 (PBLUC_HILL_SLOPE 1.95, PBLUC_R_SQUARED 0.375, read-out: LUCIFERASE INFECTION ASSAY - IC50) was found to be 4.3 µM.
On to `Cn1cc(-c2cc(-c3cccc4ccccc34)cnc2N)cn1`, for which the IC90 is above 11 µM. For the same molecule, the IC50 (PBLUC_HILL_SLOPE 11.1, PBLUC_R_SQUARED 0.24, read-out: LUCIFERASE INFECTION ASSAY - IC50) is 10.4 µM.
With `CCc1ccc2nc(Nc3nc(=O)cc(-c4cccc(OC)c4)[nH]3)nc(C)c2c1`, the IC90 is above 8.52 µM. Also, the IC50 (HEPG2TOX_HILL_SLOPE 12.4, HEPG2TOX_R_SQUARED 0.848, PBLUC_HILL_SLOPE 2.25, PBLUC_R_SQUARED 0.429, read-out: LUCIFERASE INFECTION ASSAY - IC50) was 5.68 µM.
Take `N#C/C(=C(/Oc1ccc(Cl)cc1Cl)C(F)(F)F)c1ccccc1`: the IC90 was above 9.21 µM. In addition, the IC50 (HEPG2TOX_HILL_SLOPE 9.57, HEPG2TOX_R_SQUARED 0.894, PBLUC_HILL_SLOPE 12.7, PBLUC_R_SQUARED 0.611, read-out: LUCIFERASE INFECTION ASSAY - IC50) was found to be 8.77 µM.
For the molecule `Cc1cc(C(=O)COC(=O)c2[nH]nc3ccccc23)c(C)n1CC1CCCO1` (stereo not given), the IC90 amounted to 0.491 µM. In addition, the IC50 under setting [1] worked out at 0.417 µM.
The matching figures for `FC(F)(F)c1cnc(Sc2nc(CN3CCOCC3)nc3scc(-c4ccccc4)c23)c(Cl)c1`: above 10 µM and above 10 µM.
The like results for `CCOC(=O)c1c(C)[nH]c(N=Nc2ccc3c(c2)OCO3)c1C` were, in that order, above 10 µM and 9.43 µM.
Take `CC1CCN(Cc2nc3scc(-c4ccccc4)c3c(=O)n2CC(=O)N2CCc3ccccc32)CC1`: the IC90 is above 10 µM. Further, under setting [1], the IC50 was above 10 µM.
`CC(C)(C)c1ccc(NC(=S)NCCCCCCNC(=S)Nc2ccc(C(C)(C)C)cc2)cc1`: the IC90 is above 6.62 µM. In addition, the IC50 under setting [1] was above 6.62 µM.
With `COc1ccc(CCn2cnc3c(cnn3-c3ccc(C)cc3)c2=O)cc1`, the IC90 stood at 0.133 µM. Further, the IC50 (FFLUC_HILL_SLOPE 2.44, FFLUC_R_SQUARED 0.232, HEPG2TOX_HILL_SLOPE 1.29, HEPG2TOX_R_SQUARED 0.958, PBLUC_HILL_SLOPE 8.61, PBLUC_R_SQUARED 0.878, read-out: LUCIFERASE INFECTION ASSAY - IC50) amounted to 0.103 µM.
For `CCc1ccc(C2=NN=C(Nc3cccc(S(=O)(=O)N(C)C)c3)SC2)cc1`, the IC90 was 9.95 µM. Besides, for the setting “FFLUC_HILL_SLOPE 1.2, FFLUC_R_SQUARED 0.399, HEPG2TOX_HILL_SLOPE 10.6, HEPG2TOX_R_SQUARED 0.97, PBLUC_HILL_SLOPE 5.57, PBLUC_R_SQUARED 0.702, read-out: LUCIFERASE INFECTION ASSAY - IC50”, the IC50 is 6.71 µM.
Regarding `COc1cc(OC)cc(-c2cn3c(-c4ccc5c(ccn5C)c4)cnc3cn2)c1`, the IC90 turned out to be 0.163 µM. Besides, the IC50 (HEPG2TOX_HILL_SLOPE 3.11, HEPG2TOX_R_SQUARED 0.612, PBLUC_HILL_SLOPE 2.08, PBLUC_R_SQUARED 0.748, read-out: LUCIFERASE INFECTION ASSAY - IC50) worked out at 0.0568 µM.
Regarding `COc1cc(OC)cc(Oc2nc(NC(C)C)nc3ccsc23)c1`, the IC90 was 1.38 µM. The IC50 under setting [1] turned out to be 1.25 µM.
For the molecule `Cc1cc(Cl)cc(/C=N/NC(=S)NC(C)(C)C)c1O`, the IC90 worked out at 3.97 µM. The IC50 under setting [1] worked out at 3.66 µM.
As to `OC1CCC(Nc2ccn3nc(-c4cccc(OCc5ccccc5)c4)cc3n2)CC1` (stereo not given), the IC90 was determined as 7.29 µM. Also, the IC50 (PBLUC_HILL_SLOPE 2.85, PBLUC_R_SQUARED 0.208, read-out: LUCIFERASE INFECTION ASSAY - IC50) came to 3.37 µM.
Turning to `Cn1cc(-c2cnc3cnc(-c4ccsc4)cn23)cn1`, the IC90 is above 11.7 µM. Moreover, where the note is “HEPG2TOX_HILL_SLOPE 1.9, HEPG2TOX_R_SQUARED 0.409, PBLUC_HILL_SLOPE 1.49, PBLUC_R_SQUARED 0.155, read-out: LUCIFERASE INFECTION ASSAY - IC50”, the IC50 is above 11.7 µM.
For the molecule `CCCCCC(/C=N/Nc1nncc2ccccc12)=C\c1ccccc1`, the IC90 is 9.96 µM. The IC50 (PBLUC_HILL_SLOPE 4.26, PBLUC_R_SQUARED 0.663, read-out: LUCIFERASE INFECTION ASSAY - IC50) is 5.95 µM.
`COc1cccc(-c2csc(-c3nnc4n3-c3ccccc3SC4)n2)c1`: the concentration for an effect of 90% (IC90) turned out to be 3.9 µM. Under setting [1], the IC50 worked out at 2.69 µM.
Regarding `O=C(CSCc1cccs1)Nc1nc(-c2ccccn2)cs1`, the IC90 came out at 9.38 µM. The IC50 (PBLUC_HILL_SLOPE 22, PBLUC_R_SQUARED 0.337, read-out: LUCIFERASE INFECTION ASSAY - IC50) was 8.49 µM.
Regarding `O=C1CCCC2=Nc3ccc4ccccc4c3C(c3ccc(F)cc3F)C12` (stereo not given), the IC90 is above 10 µM. In addition, for the setting “FFLUC_HILL_SLOPE 2.36, FFLUC_R_SQUARED 0.309, read-out: LUCIFERASE INFECTION ASSAY - IC50”, the IC50 is above 10 µM.
With `CC(C)c1ccc(CS(=O)(=O)C(C)C(=O)NC2CCCC2)cc1` (stereo not given), the IC90 was above 10 µM. Besides, under setting [1], the IC50 was above 10 µM.
Consider `O=C(Nc1ccc([N+](=O)[O-])cc1)n1nccc1-c1ccc(-c2cccs2)s1`, for which the IC90 is above 8.32 µM. Also, the IC50 under setting [1] came to 7.77 µM.
On to `O=C(Cc1nc(C23CC4CC(CC(C4)C2)C3)cs1)NCc1ccccc1`, for which the IC90 is above 10 µM. In addition, the IC50 under setting [1] was above 10 µM.
For the molecule `Clc1ccc(SCc2cc(N3CCCC3)nc(-c3ccccn3)n2)cc1`, the IC90 is 2.94 µM. For the same molecule, the IC50 (HEPG2TOX_HILL_SLOPE 2.23, HEPG2TOX_R_SQUARED 0.944, PBLUC_HILL_SLOPE 20.5, PBLUC_R_SQUARED 0.394, read-out: LUCIFERASE INFECTION ASSAY - IC50) worked out at 2.64 µM.
On to `c1nc(NCc2ccc(CN3CCOCC3)cc2)c2c3c(sc2n1)CCC3`, for which the IC90 came out at 1.55 µM. Under “HEPG2TOX_HILL_SLOPE 1.37, HEPG2TOX_R_SQUARED 0.969, PBLUC_HILL_SLOPE 10, PBLUC_R_SQUARED 0.164, read-out: LUCIFERASE INFECTION ASSAY - IC50”, the IC50 was 1.25 µM.

For orientation: IC50 means the concentration that gives 50% inhibition. By IC90 is commonly meant the concentration at which the effect reaches the 90% level.

The values are drawn from ChEMBL document CHEMBL4483862, “Open-source discovery of chemical leads for next-generation chemoprotective antimalarials” (2018).
